What follows are compounds tested against human PDE1b enzyme (Homo sapiens (Human), UniProt Q01064) (assay: PDE1b inhibitory assay (IMAP TR-FRET)). Conditions: not given.

Compound | EC50 [nM]
COc1ccc(Cn2c(=O)n3ncnc3c3c(C)c(CN4C[C@@H](C)N[C@@H](C)C4)sc32)cc1 [Example 72, 8-(((3R,5S)-3,5-Dimethylpiperazin-1-yl)methyl)-6-(4-methoxybenzyl)-9-methylthieno[3,2-e][1,2,4]triazolo[1,5-c]pyrimidin-5(6H)-one] | 100 to 1000
COc1ccc(Cn2c(=O)n3ncnc3c3ccsc32)cc1 [Example 27, 6-(4-Methoxybenzyl)thieno[3,2-e][1,2,4]triazolo[1,5-c]pyrimidin-5(6H)-one] | 100 to 1000
COc1ccc(Cn2c(=O)n3ncnc3c3c4c(sc32)CN(CC2CNCCO2)CC4)cc1 (stereo not drawn) [Example 180, 6-(4-Methoxybenzyl)-9-(morpholin-2-ylmethyl)-8,9,10,11-tetrahydropyrido[4′,3′:4,5]thieno[3,2-e][1,2,4]triazolo[1,5-c]pyrimidin-5(6H)-one] | 100 to 1000
CC1(C)Cc2c(sc3c2c2ncnn2c(=O)n3Cc2ccc(Cl)cc2)CO1 [Example 83, 6-(4-Chlorobenzyl)-10,10-dimethyl-6,8,10,11-tetrahydro-5H-pyrano[4′,3′:4,5]thieno[3,2-e][1,2,4]triazolo[1,5-c]pyrimidin-5-one] | 100 to 1000
COc1ccc(Cn2c(=O)n3ncnc3c3c4c(sc32)N(Cc2cccc(Cl)c2)CCC4)cc1OC [Example 155, 8-(3-Chlorobenzyl)-6-(3,4-dimethoxybenzyl)-8,9,10,11-tetrahydropyrido[3′,2′:4,5]thieno[3,2-e][1,2,4]triazolo[1,5-c]pyrimidin-5(6H)-one] | 1000 to 10000
O=c1n(Cc2ccc(Cl)c(F)c2)c2sc3c(c2c2ncnn12)CCOC3 [Example 93, 6-(4-Chloro-3-fluorobenzyl)-6,8,10,11-tetrahydro-5H-pyrano[4′,3′:4,5]thieno[3,2-e][1,2,4]triazolo[1,5-c]pyrimidin-5-one] | 100 to 1000
O=c1n(Cc2ccc(C(F)(F)F)cc2)c2sc3c(c2c2ncnn12)CCOC3 [Example 89, 6-(4-(Trifluoromethyl)benzyl)-6,8,10,11-tetrahydro-5H-pyrano[4′,3′:4,5]thieno[3,2-e][1,2,4]triazolo[1,5-c]pyrimidin-5-one] | 1000 to 10000
COc1ccc(Cn2c(=O)n3ncnc3c3c(C)csc32)cc1 [Example 28, 6-(4-Methoxybenzyl)-9-methylthieno[3,2-e][1,2,4]triazolo[1,5-c]pyrimidin-5(6H)-one] | 100 to 1000
O=c1n(Cc2cccc(Cl)c2)c2sccc2c2ncnn12 [Example 2, 6-(3-Chlorobenzyl)thieno[3,2-e][1,2,4]triazolo[1,5-c]pyrimidin-5(6H)-one] | 1000 to 10000
O=c1n(Cc2cccc(Cl)c2)c2sc(Cc3ccccc3)cc2c2ncnn12 [Example 9, 8-Benzyl-6-(3-chlorobenzyl)thieno[3,2-e][1,2,4]triazolo[1,5-c]pyrimidin-5(6H)-one] | 100 to 1000
O=c1n(Cc2ccc(Cl)c(Cl)c2)c2sc3c(c2c2ncnn12)CCOC3 [Example 91, 6-(3,4-Dichlorobenzyl)-6,8,10,11-tetrahydro-5H-pyrano[4′,3′:4,5]thieno[3,2-e][1,2,4]triazolo[1,5-c]pyrimidin-5-one] | 100 to 1000
COc1ccc(Cn2c(=O)n3ncnc3c3cc(CN(C)C)sc32)c(F)c1F [Example 214, 6-(2,3-Difluoro-4-methoxybenzyl)-8-((dimethylamino)methyl)thieno[3,2-e][1,2,4]triazolo[1,5-c]pyrimidin-5(6H)-one] | 100 to 1000
Cc1csc2c1c1ncnn1c(=O)n2Cc1cccc(Cl)c1 [Example 11, 6-(3-Chlorobenzyl)-9-methylthieno[3,2-e][1,2,4]triazolo[1,5-c]pyrimidin-5(6H)-one] | 100 to 1000
COc1ccc(Cn2c(=O)n3nccc3c3cc(CN4CCOCC4)sc32)cc1 [Example 82, 4-(4-Methoxybenzyl)-2-(morpholinomethyl)pyrazolo[1,5-c]thieno[3,2-e]pyrimidin-5(4H)-one] | 100 to 1000
COc1ccc(Cn2c(=O)n3ncnc3c3c4c(sc32)N(Cc2ccc(Cl)cc2)CCC4)cc1 [Example 152, 8-(4-Chlorobenzyl)-6-(4-methoxybenzyl)-8,9,10,11-tetrahydropyrido[3′,2′:4,5]thieno[3,2-e][1,2,4]triazolo[1,5-c]pyrimidin-5 (6H)-one] | 100 to 1000
O=c1n(Cc2ccc(Cl)cc2F)c2sc3c(c2c2ncnn12)CCOC3 [Example 94, 6-(4-Chloro-2-fluorobenzyl)-6,8,10,11-tetrahydro-5H-pyrano[4′,3′:4,5]thieno[3,2-e][1,2,4]triazolo[1,5-c]pyrimidin-5-one] | 100 to 1000
Cc1csc2c1c1ncnn1c(=O)n2Cc1ccc(Cl)cc1 [Example 3, 6-(4-Chlorobenzyl)-9-methylthieno[3,2-e][1,2,4]triazolo[1,5-c]pyrimidin-5(6H)-one] | 100 to 1000

Same assay, conditions: negative log of half-maximal molar inhibitory concentration; 200 nM FAM-cAMP; reported as ranges

Compound | PDE1b (pEC50)
COc1ccc(Cn2c(=O)n3ncnc3c3cc(CN4CC5(CCOCC5)C4)sc32)cc1 [Example 38, 8-(7-Oxa-2-azaspiro[3.5]nonan-2-ylmethyl)-6-(4-methoxybenzyl)thieno[3,2-e][1,2,4]triazolo[1,5-c]pyrimidin-5(6H)-one] | >7
O=c1n(Cc2ccc(-c3ccccc3)cc2)c2sccc2c2ncnn12 [Example 4, 6-([1,1′-Biphenyl]-4-ylmethyl)thieno[3,2-e][1,2,4]triazolo[1,5-c]pyrimidin-5(6H)-one] | <5
COc1ccc(Cn2c(=O)n3ncnc3c3c(C)c(CN(C)CC4CCOC4)sc32)cc1 (stereo not drawn) [Example 59, 6-(4-Methoxybenzyl)-9-methyl-8-((methyl((tetrahydrofuran-3-yl)methyl)amino)methyl)thieno[3,2-e][1,2,4]triazolo[1,5-c]pyrimidin-5(6H)-one] | >7
COc1ccc(Cn2c(=O)n3ncnc3c3c(C)c(CN4Cc5ccccc5C4)sc32)cc1 [Example 56, 8-(Isoindolin-2-ylmethyl)-6-(4-methoxybenzyl)-9-methylthieno[3,2-e][1,2,4]triazolo[1,5-c]pyrimidin-5(6H)-one] | >7
COc1ccc(Cn2c(=O)n3ncnc3c3c4c(sc32)CN(CC2CCCOC2)CC4)c(F)c1 (stereo not drawn) [Example 142, 6-(2-Fluoro-4-methoxybenzyl)-9-((tetrahydro-2H-pyran-3-yl)methyl)-8,9,10,11-tetrahydropyrido[4′,3′:4,5]thieno[3,2-e][1,2,4]triazolo[1,5-c]pyrimidin-5(6H)-one] | >7
COc1ccc(Cn2c(=O)n3ncnc3c3c4c(sc32)CN(C(=O)C2CC2)CC4)c(F)c1 [Example 168, 9-(Cyclopropanecarbonyl)-6-(2-fluoro-4-methoxybenzyl)-8,9,10,11-tetrahydropyrido[4′,3′:4,5]thieno[3,2-e][1,2,4]triazolo[1,5-c]pyrimidin-5(6H)-one] | >7
COc1ccc(Cn2c(=O)n3ncnc3c3c4c(sc32)CN(CC2COCCO2)CC4)cc1 (stereo not drawn) [Example 125, 9-((1,4-Dioxan-2-yl)methyl)-6-(4-methoxybenzyl)-8,9,10,11-tetrahydropyrido[4′,3′:4,5]thieno[3,2-e][1,2,4]triazolo[1,5-c]pyrimidin-5(6H)-one] | >7
COc1ccc(Cn2c(=O)n3ncnc3c3c4c(sc32)CN(C(=O)[C@@H]2CCOC2)CC4)cc1 [Example 169, (R)-6-(4-Methoxybenzyl)-9-(tetrahydrofuran-3-carbonyl)-8,9,10,11-tetrahydropyrido[4′,3′:4,5]thieno[3,2-e][1,2,4]triazolo[1,5-c]pyrimidin-5(6H)-one] | >7
COc1ccc(Cn2c(=O)n3ncnc3c3c4c(sc32)CN(CC2CCOCC2)CCC4)cc1 [Example 147, 6-(4-Methoxybenzyl)-9-((tetrahydro-2H-pyran-4-yl)methyl)-6,8,9,10,11,12-hexahydro-5H-[1,2,4]triazolo[1″,5″:1′,6′]pyrimido[5′,4′:4,5]thieno[2,3-c]azepin-5-one] | >7
COc1ccc(Cn2c(=O)n3ncnc3c3c4c(sc32)N(C(=O)C2CC2)CCC4)cc1 [Example 174, 8-(Cyclopropanecarbonyl)-6-(4-methoxybenzyl)-8,9,10,11-tetrahydropyrido[3′,2′:4,5]thieno[3,2-e][1,2,4]triazolo[1,5-c]pyrimidin-5(6H)-one] | >7
COc1ccc(Cn2c(=O)n3ncnc3c3c4c(sc32)CN(CC2CCOC2)CC4)c(F)c1 (stereo not drawn) [Example 140, 6-(2-Fluoro-4-methoxybenzyl)-9-((tetrahydrofuran-3-yl)methyl)-8,9,10,11-tetrahydropyrido[4′,3′:4,5]thieno[3,2-e][1,2,4]triazolo[1,5-c]pyrimidin-5(6H)-one] | >7
COc1ccc(Cn2c(=O)n3ncnc3c3c(C)c(CNCc4cccnc4)sc32)cc1 [Example 52, 6-(4-Methoxybenzyl)-9-methyl-8-(((pyridin-3-ylmethyl)amino)methyl)thieno[3,2-e][1,2,4]triazolo[1,5-c]pyrimidin-5(6H)-one] | >7
COc1ccc(Cn2c(=O)n3ncnc3c3c(C)c(CN4CCC(O)CC4)sc32)cc1 [Example 47, 8-((4-Hydroxypiperidin-1-yl)methyl)-6-(4-methoxybenzyl)-9-methylthieno[3,2-e][1,2,4]triazolo[1,5-c]pyrimidin-5(6H)-one] | >7
COc1ccc(Cn2c(=O)n3ncnc3c3c4c(sc32)CN(CC2CCOC2)CCC4)cc1 (stereo not drawn) [Example 143, 6-(4-Methoxybenzyl)-9-((tetrahydrofuran-3-yl)methyl)-6,8,9,10,11,12-hexahydro-5H-[1,2,4]triazolo[1″,5″:1%6′]pyrimido[5′,4′:4,5]thieno[2,3-c]azepin-5-one] | >7
COc1ccc(Cn2c(=O)n3ncnc3c3cc(CN4CCCOCC4)sc32)c(F)c1F [Example 194, 8-((1,4-Oxazepan-4-yl)methyl)-6-(2,3-difluoro-4-methoxybenzyl)thieno[3,2-e][1,2,4]triazolo[1,5-c]pyrimidin-5(6H)-one] | >7
COc1ccc(Cn2c(=O)n3ncnc3c3cc(CN4CCN(c5cccc(F)c5)CC4)sc32)cc1 [Example 187, 8-((4-(3-Fluorophenyl)piperazin-1-yl)methyl)-6-(4-methoxybenzyl)thieno[3,2-e][1,2,4]triazolo[1,5-c]pyrimidin-5(6H)-one] | >7

Reference: patent publication US10092575B2, “Substituted thiophene- and furan-fused azolopyrimidine-5-(6H)-one compounds” (DART NEUROSCIENCE (CAYMAN) LTD., priority 2012, dated 2018)
